Measured values from patent US7812008B2, “9-substituted tetracyclines” (Wyeth LLC, priority 2005, dated 2010).
Values after ≈ are worked out from the molar mass of the structure shown. Where two headings read alike, the source gives them in different places.

Tests used:
[1] = test system: E. faecalis GC2267 (tet(L) + (M) + (S)); assay: MIC broth microdilution, E. faecalis GC2267 (tet(L) + (M) + (S)); format: cell-based; settings: MHBII, 18-22 hours at 35° C.
Protocol: (§1) Methods for in Vitro Antibacterial Evaluation
(§2) The minimum inhibitory concentration (MIC)
(§3) Antimicrobial susceptibility testing. The in vitro activities of representative examples of antibiotics of the invention are determined by the broth microdilution method as recommended by the National Committee for Clinical Laboratory Standards (NCCLS) (1). Mueller-Hinton II broth (MHBII)(BBL Cockeysville, Md.) is the medium employed in the testing procedures. Microtiter plates containing serial dilutions of each antimicrobial agent are inoculated with each organism to yield the appropriate density (10^5 CFU/ml) in a 100 μl final volume. The plates are incubated for 18-22 hours at 35° C. in ambient air. […] NCCLS. 2000. Methods for Dilution Antimicrobial Susceptibility Tests for Bacteria That Grow Aerobically; Approved Standards: M7-A5, vol. 20. National Committe for Clinical Laboratory Standards, Wayne, Pa.

[2] = test system: E. coli GC2203 (ATCC Control); assay: MIC broth microdilution, E. coli GC2203 (ATCC Control); format: cell-based; settings: MHBII, 18-22 hours at 35° C.
Protocol: as §1, §2, §3

[3] = test system: E. coli GC4559 (parent GC4560); assay: MIC broth microdilution, E. coli GC4559 (parent GC4560); format: cell-based; settings: MHBII, 18-22 hours at 35° C.
Protocol: as §1, §2, §3

[4] = test system: Staphylococcal aureus Smith M P; assay: MIC reported in Table 2 beside the in vivo ED50; format: cell-based; settings: Staphylococcus aureus, infecting strain S. aureus Smith MP
Protocol: Antimicrobial susceptibility testing. The in vitro activities of representative examples of antibiotics of the invention are determined by the broth microdilution method as recommended by the National Committee for Clinical Laboratory Standards (NCCLS) (1). Mueller-Hinton II broth (MHBII)(BBL Cockeysville, Md.) is the medium employed in the testing procedures. Microtiter plates containing serial dilutions of each antimicrobial agent are inoculated with each organism to yield the appropriate density (10^5 CFU/ml) in a 100 μl final volume. The plates are incubated for 18-22 hours at 35° C. in ambient air. […] NCCLS. 2000. Methods for Dilution Antimicrobial Susceptibility Tests for Bacteria That Grow Aerobically; Approved Standards: M7-A5, vol. 20. National Committe for Clinical Laboratory Standards, Wayne, Pa. In Vivo Antibacterial Evaluation: The therapeutic effects of representative examples of the invention are determined against acute lethal infection with Staphylococcal aureus Smith M P, Female mice, strain CD-1 (Charles River Laboratoties), ca. 20 grams, are challenged by an intraperitoneal injection of sufficient bacteria (suspended in broth or hog mucin) to kill non-treated controls within 24-28 hours. Antibacterial agents, contained in 0.5 ml of 0.2% aqueous agar, are administered subcutaneously or orally 30 minutes after injection. When an oral dosing schedule is used, animal are deprived of food for 5 hours before and 2 hours after injection. Five mice are treated at each dose level. The 7 day survival ratios from 3 separate tests are pooled for calculation of median effective dose (ED50).

[5] = test system: S. aureus GC1131 (Clinical); assay: MIC broth microdilution, S. aureus GC1131 (Clinical); format: cell-based; settings: MHBII, 18-22 hours at 35° C.
Protocol: as §1, §2, §3

[6] = test system: E. faecalis GC2242 (Van-resistant); assay: MIC broth microdilution, E. faecalis GC2242 (Van-resistant); format: cell-based; settings: MHBII, 18-22 hours at 35° C.
Protocol: as §1, §2, §3

[7] = test system: S. aureus GC6467 (tet(M) + (K)); assay: MIC broth microdilution, S. aureus GC6467 (tet(M) + (K)); format: cell-based; settings: MHBII, 18-22 hours at 35° C.
Protocol: as §1, §2, §3

[8] = test system: S. aureus GC6466 (tet(M)); assay: MIC broth microdilution, S. aureus GC6466 (tet(M)); format: cell-based; settings: MHBII, 18-22 hours at 35° C.
Protocol: as §1, §2, §3

E. coli GC2270 (tet(M)) = assay: MIC broth microdilution, E. coli GC2270 (tet(M)); format: cell-based; settings: MHBII, 18-22 hours at 35° C.
Protocol: as §1, §2, §3

[9] = test system: Staphylococcal aureus Smith M P; assay: In vivo antibacterial evaluation, acute lethal infection in mice; settings: Mus musculus; single oral dose 30 minutes after intraperitoneal challenge; female CD-1 mice; 7 day survival ratios, 3 tests pooled; read-out: SOD* ED50
Protocol: In Vivo Antibacterial Evaluation: The therapeutic effects of representative examples of the invention are determined against acute lethal infection with Staphylococcal aureus Smith M P, Female mice, strain CD-1 (Charles River Laboratoties), ca. 20 grams, are challenged by an intraperitoneal injection of sufficient bacteria (suspended in broth or hog mucin) to kill non-treated controls within 24-28 hours. Antibacterial agents, contained in 0.5 ml of 0.2% aqueous agar, are administered subcutaneously or orally 30 minutes after injection. When an oral dosing schedule is used, animal are deprived of food for 5 hours before and 2 hours after injection. Five mice are treated at each dose level. The 7 day survival ratios from 3 separate tests are pooled for calculation of median effective dose (ED50).

[10] = test system: Staphylococcal aureus Smith M P; assay: as above; settings: Mus musculus, iv, 168 h; single intraveneous dose; female CD-1 mice; 7 day survival ratios, 3 tests pooled; read-out: SIV* ED50
[11] = test system: S. aureus GC1079 (tet(K)); assay: MIC broth microdilution, S. aureus GC1079 (tet(K)); format: cell-based; settings: MHBII, 18-22 hours at 35° C.
Protocol: as §1, §2, §3

[12] = test system: M. catarrhalis* GC6907 (Clinical); assay: MIC broth microdilution, M. catarrhalis GC6907 (Clinical); format: cell-based; settings: 18-22 hours at 35° C.
Protocol: as §1, §2, §3

[13] = test system: S. pneumoniae* GC4465 (Clinical); assay: MIC broth microdilution, S. pneumoniae GC4465 (Clinical); format: cell-based; settings: 18-22 hours at 35° C.
Protocol: as §1, §2, §3

[14] = test system: H. influenzae<> GC6896 (ATCC Control); assay: MIC broth microdilution, H. influenzae GC6896 (ATCC Control); format: cell-based; settings: 18-22 hours at 35° C.
Protocol: as §1, §2, §3

[15] = test system: S. aureus GC4536 (Smith MP -In Vivo); assay: MIC broth microdilution, S. aureus GC4536 (Smith MP -In Vivo); format: cell-based; settings: MHBII, 18-22 hours at 35° C.
Protocol: as §1, §2, §3

[16] = test system: S. aureus GC2216 (ATCC Control); assay: MIC broth microdilution, S. aureus GC2216 (ATCC Control); format: cell-based; settings: MHBII, 18-22 hours at 35° C.
Protocol: as §1, §2, §3

[17] = test system: S. pneumoniae* GC1894 (Clinical); assay: MIC broth microdilution, S. pneumoniae GC1894 (Clinical); format: cell-based; settings: 18-22 hours at 35° C.
Protocol: as §1, §2, §3

[18] = test system: S. pyogenes* GC4563 (Clinical); assay: MIC broth microdilution, S. pyogenes GC4563 (Clinical); format: cell-based; settings: 18-22 hours at 35° C.
Protocol: as §1, §2, §3

[19] = test system: E. coli GC4560 (IMP mutant); assay: MIC broth microdilution, E. coli GC4560 (IMP mutant); format: cell-based; settings: MHBII, 18-22 hours at 35° C.
Protocol: as §1, §2, §3

[20] = test system: C. albicans GC3066 ATCC (Control); assay: MIC broth microdilution, C. albicans GC3066 ATCC (Control); format: cell-based; settings: 18-22 hours at 35° C.
Protocol: as §1, §2, §3

[21] = test system: E. faecalis GC4555 (ATCC Control); assay: MIC broth microdilution, E. faecalis GC4555 (ATCC Control); format: cell-based; settings: MHBII, 18-22 hours at 35° C.
Protocol: as §1, §2, §3

E. coli GC1073 (tet(B)) = assay: MIC broth microdilution, E. coli GC1073 (tet(B)); format: cell-based; settings: MHBII, 18-22 hours at 35° C.
Protocol: as §1, §2, §3

Row | Compound | minimum inhibitory concentration (MIC) [1] | minimum inhibitory concentration (MIC) [2] | minimum inhibitory concentration (MIC) [3] | MIC [4] [µg/mL] | minimum inhibitory concentration (MIC) [5] | minimum inhibitory concentration (MIC) [6] | minimum inhibitory concentration (MIC) [7] | minimum inhibitory concentration (MIC) [8] | minimum inhibitory concentration (MIC) (E. coli GC2270 (tet(M))) | ED50 [9] [mg/kg] | ED50 [10] [mg/kg] | minimum inhibitory concentration (MIC) [11] | minimum inhibitory concentration (MIC) [12] | minimum inhibitory concentration (MIC) [13] | minimum inhibitory concentration (MIC) [14] | minimum inhibitory concentration (MIC) [17] | minimum inhibitory concentration (MIC) [18] | minimum inhibitory concentration (MIC) [20] | minimum inhibitory concentration (MIC) [21] | minimum inhibitory concentration (MIC) (E. coli GC1073 (tet(B))) | further results
1 | CONCC(=O)Nc1cc(N(C)C)c2c(c1O)C(=O)C1=C(O)[C@]3(O)C(=O)C(C(N)=O)=C(O)[C@@H](N(C)C)[C@@H]3C[C@@H]1C2 [Example 5, (4S,4aS,5aR,12aS)-4,7-bis(dimethylamino)-3,10,12,12a-tetrahydroxy-9-[(N-methoxyglycyl)amino]-1,11-dioxo-1,4,4a,5,5a,6,11,12a-octahydrotetracene-2-carboxamide] | 4 | 2 | 4 | 1 (≈ 1.79 µM) | 1 | 2 | 4 | 1 | 4 | 16 to 32 | 0.5 to 1 | 2 | 0.25 | 0.12 | 2 | 0.25 | 0.25 | >64 | 1 | 4 | minimum inhibitory concentration (MIC) [15]: 1; minimum inhibitory concentration (MIC) [16]: 1; minimum inhibitory concentration (MIC) [19]: 0.25
2 | CN(C)c1cc(NC(=O)CN(O)Cc2ccccc2)c(O)c2c1C[C@H]1C[C@H]3[C@H](N(C)C)C(O)=C(C(N)=O)C(=O)[C@@]3(O)C(O)=C1C2=O [Example 6, (4S,4aS,5aR,12aS)-9-[(N-benzyl-N-hydroxyglycyl)amino]-4,7-bis(dimethylamino)-3,10,12,12a-tetrahydroxy-1,11-dioxo-1,4,4a,5,5a,6,11,12a-octahydrotetracene-2-carboxamide] | 8 | 16 | 8 | 2 (≈ 3.15 µM) | 4 | 2 | 64 | 2 | 16 | > 16 | > 4 | 8 | 0.50 | 0.12 | 2 | 0.25 | 0.25 | >64 | 1 | 32 | minimum inhibitory concentration (MIC) [15]: 2; minimum inhibitory concentration (MIC) [16]: 2; minimum inhibitory concentration (MIC) [19]: 0.25
3 | CN(C)c1cc(NC(=O)CNOC(C)(C)C)c(O)c2c1C[C@H]1C[C@H]3[C@H](N(C)C)C(O)=C(C(N)=O)C(=O)[C@@]3(O)C(O)=C1C2=O [Example 4, (4S,4aS,5aR,12aS)-9-{[N-(tert-butoxy)glycyl]amino}-4,7-bis(dimethylamino)-3,10,12,12a-tetrahydroxy-1,11-dioxo-1,4,4a,5,5a,6,11,12a-octahydrotetracene-2-carboxamide] | 8 | 8 | 16 | 4 (≈ 6.65 µM) | 1 | 1 | >64 | 1 | 8 | 1.1 | 0.25 to 1 | 16 | 0.50 | 0.25 | 2 | 0.25 | 0.12 | >64 | 1 | 16 | minimum inhibitory concentration (MIC) [15]: 1; minimum inhibitory concentration (MIC) [16]: 1; minimum inhibitory concentration (MIC) [19]: 0.50
4 | CN(C)c1cc(NC(=O)CN(O)C2CCCCC2)c(O)c2c1C[C@H]1C[C@H]3[C@H](N(C)C)C(O)=C(C(N)=O)C(=O)[C@@]3(O)C(O)=C1C2=O [Example 1, (4S,4aS,5aR,12aS)-9-[(N-cyclohexyl-N-hydroxyglycyl)amino]-4,7-bis(dimethylamino)-3,10,12,12a-tetrahydroxy-1,11-dioxo-1,4,4a,5,5a,6,11,12a-octahydrotetracene-2-carboxamide] | 16 | 2 | 8 | 1 (≈ 1.59 µM) | 4 | 2 | >64 | 8 | 8 | 7.75 | 1.56 | 16 | 0.50 | 0.25 | 2 | 0.25 | 0.12 | >64 | 1 | 16 | minimum inhibitory concentration (MIC) [15]: 4; minimum inhibitory concentration (MIC) [16]: 4; minimum inhibitory concentration (MIC) [19]: 0.25
5 | CN(C)c1ccc(O)c2c1C[C@H]1C[C@H]3[C@H](N(C)C)C(O)=C(C(N)=O)C(=O)[C@@]3(O)C(O)=C1C2=O [Minocycline, 7-(dimethylamino)-6-demethyl-6-deoxytetracycline, reference compound] | 16 |  | 2 | 0.25 (≈ 0.546 µM) |  |  |  | 8 | 64 | 0.6 to 0.93 | 0.37 to 0.42 |  | <0.06 |  |  | 4 | <0.06 | >64 | 4 | 16 | 
